{"source": "PubChem BioAssay (NCI)", "test_in_all_cases": "growth of human tumour cells (NCI), 48 h", "key": {"786-0 renal": {"tested_on": "786-0 renal"}, "MOLT-4 leukemia": {"tested_on": "MOLT-4 leukemia"}, "SK-MEL-28 melanoma": {"tested_on": "SK-MEL-28 melanoma"}, "HOP-92 NSCLC": {"tested_on": "HOP-92 NSCLC"}, "NCI-H460 lung": {"tested_on": "NCI-H460 lung"}, "UACC-62 melanoma": {"tested_on": "UACC-62 melanoma"}, "DU-145 prostate": {"tested_on": "DU-145 prostate"}, "A549 NSCLC": {"tested_on": "A549 NSCLC"}, "K-562 leukemia": {"tested_on": "K-562 leukemia"}, "SR leukemia": {"tested_on": "SR leukemia"}, "RPMI-8226 leukemia": {"tested_on": "RPMI-8226 leukemia"}, "SK-OV-3 ovarian": {"tested_on": "SK-OV-3 ovarian"}, "SF-295 CNS": {"tested_on": "SF-295 CNS"}, "HCC-2998 colon": {"tested_on": "HCC-2998 colon"}, "NCI-H522 lung": {"tested_on": "NCI-H522 lung"}, "M14 melanoma": {"tested_on": "M14 melanoma"}, "HL-60(TB) leukemia": {"tested_on": "HL-60(TB) leukemia"}, "LOX IMVI melanoma": {"tested_on": "LOX IMVI melanoma"}, "CCRF-CEM leukemia": {"tested_on": "CCRF-CEM leukemia"}, "MDA-MB-231 breast": {"tested_on": "MDA-MB-231 breast"}, "KM12 colon": {"tested_on": "KM12 colon"}, "UO-31 renal": {"tested_on": "UO-31 renal"}, "IGROV1 ovarian": {"tested_on": "IGROV1 ovarian"}, "HCT-15 colon": {"tested_on": "HCT-15 colon"}, "RXF 393 renal": {"tested_on": "RXF 393 renal"}, "TK-10 renal": {"tested_on": "TK-10 renal"}, "T-47D breast": {"tested_on": "T-47D breast"}, "ACHN renal": {"tested_on": "ACHN renal"}, "HOP-62 NSCLC": {"tested_on": "HOP-62 NSCLC"}, "SF-539 CNS": {"tested_on": "SF-539 CNS"}, "NCI-H226 lung": {"tested_on": "NCI-H226 lung"}, "SW-620 colon": {"tested_on": "SW-620 colon"}, "HT29 colon": {"tested_on": "HT29 colon"}, "BT-549 breast": {"tested_on": "BT-549 breast"}, "SNB-19 CNS": {"tested_on": "SNB-19 CNS"}, "COLO 205 colon": {"tested_on": "COLO 205 colon"}, "OVCAR-4 ovarian": {"tested_on": "OVCAR-4 ovarian"}, "HS 578T breast": {"tested_on": "HS 578T breast"}, "SK-MEL-2 melanoma": {"tested_on": "SK-MEL-2 melanoma"}, "UACC-257 melanoma": {"tested_on": "UACC-257 melanoma"}, "CAKI-1 renal": {"tested_on": "CAKI-1 renal"}, "HCT-116 colon": {"tested_on": "HCT-116 colon"}, "SNB-75 CNS": {"tested_on": "SNB-75 CNS"}, "OVCAR-8 ovarian": {"tested_on": "OVCAR-8 ovarian"}, "OVCAR-3 ovarian": {"tested_on": "OVCAR-3 ovarian"}, "NCI/ADR-RES ovarian": {"tested_on": "NCI/ADR-RES ovarian"}, "SK-MEL-5 melanoma": {"tested_on": "SK-MEL-5 melanoma"}, "SF-268 CNS": {"tested_on": "SF-268 CNS"}, "MCF7 breast": {"tested_on": "MCF7 breast"}, "MDA-MB-435": {"tested_on": "MDA-MB-435"}, "EKVX NSCLC": {"tested_on": "EKVX NSCLC"}, "PC-3 prostate": {"tested_on": "PC-3 prostate"}, "U251 CNS": {"tested_on": "U251 CNS"}, "OVCAR-5 ovarian": {"tested_on": "OVCAR-5 ovarian"}, "SN12C renal": {"tested_on": "SN12C renal"}, "NCI-H23 lung": {"tested_on": "NCI-H23 lung"}}, "note": "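These data come from cells grown in 96-well plates and exposed to compound for 48 hours at five concentrations. GI50 = concentration required for 50% inhibition of growth. TGI is the concentration that stops growth completely.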"}
{"smiles": "COCCCC(NC(=O)C(CC(C)C)NC(=O)OCc1ccc(OC)cc1)C(=O)OC", "note": "(stereo not given)", "values": [{"measurement": "GI50", "setting": "786-0 renal", "result": 80.6, "unit": "µg/mL"}, {"measurement": "GI50", "setting": "MOLT-4 leukemia", "result": 39.4, "unit": "µg/mL"}, {"measurement": "TGI", "setting": "MOLT-4 leukemia", "result": 60.1, "unit": "µg/mL"}, {"measurement": "GI50", "setting": "SK-MEL-28 melanoma", "result": 47.1, "unit": "µg/mL"}, {"measurement": "TGI", "setting": "SK-MEL-28 melanoma", "result": 76.6, "unit": "µg/mL"}, {"measurement": "GI50", "setting": "HOP-92 NSCLC", "result": 40.8, "unit": "µg/mL"}, {"measurement": "TGI", "setting": "HOP-92 NSCLC", "result": 65.4, "unit": "µg/mL"}, {"measurement": "GI50", "setting": "NCI-H460 lung", "result": 23, "unit": "µg/mL"}, {"measurement": "TGI", "setting": "NCI-H460 lung", "result": 46.2, "unit": "µg/mL"}, {"measurement": "GI50", "setting": "UACC-62 melanoma", "result": 71.3, "unit": "µg/mL"}, {"measurement": "GI50", "setting": "DU-145 prostate", "result": 77.6, "unit": "µg/mL"}, {"measurement": "GI50", "setting": "A549 NSCLC", "result": 61.1, "unit": "µg/mL"}, {"measurement": "GI50", "setting": "K-562 leukemia", "result": 36, "unit": "µg/mL"}, {"measurement": "TGI", "setting": "K-562 leukemia", "result": 81.5, "unit": "µg/mL"}, {"measurement": "GI50", "setting": "SR leukemia", "result": 18.8, "unit": "µg/mL"}, {"measurement": "TGI", "setting": "SR leukemia", "result": 42.5, "unit": "µg/mL"}, {"measurement": "GI50", "setting": "RPMI-8226 leukemia", "result": 27, "unit": "µg/mL"}, {"measurement": "TGI", "setting": "RPMI-8226 leukemia", "result": 70, "unit": "µg/mL"}, {"measurement": "GI50", "setting": "SK-OV-3 ovarian", "result": 71.6, "unit": "µg/mL"}, {"measurement": "GI50", "setting": "SF-295 CNS", "result": 83.3, "unit": "µg/mL"}, {"measurement": "GI50", "setting": "HCC-2998 colon", "result": 32.5, "unit": "µg/mL"}, {"measurement": "TGI", "setting": "HCC-2998 colon", "result": 75.1, "unit": "µg/mL"}, {"measurement": "GI50", "setting": "NCI-H522 lung", "result": 59.8, "unit": "µg/mL"}, {"measurement": "GI50", "setting": "M14 melanoma", "result": 50.5, "unit": "µg/mL"}, {"measurement": "TGI", "setting": "M14 melanoma", "result": 85.3, "unit": "µg/mL"}, {"measurement": "GI50", "setting": "HL-60(TB) leukemia", "result": 26.9, "unit": "µg/mL"}, {"measurement": "TGI", "setting": "HL-60(TB) leukemia", "result": 57.5, "unit": "µg/mL"}, {"measurement": "GI50", "setting": "LOX IMVI melanoma", "result": 96.4, "unit": "µg/mL"}, {"measurement": "GI50", "setting": "CCRF-CEM leukemia", "result": 42.1, "unit": "µg/mL"}, {"measurement": "TGI", "setting": "CCRF-CEM leukemia", "result": 87.1, "unit": "µg/mL"}]}
{"smiles": "O=C(CC(=O)N1N=C(N(c2ccccc2)c2ccccc2)CC1c1ccccc1)Nc1cccc(Cl)c1", "note": "(stereo not given)", "values": [{"measurement": "TGI", "setting": "MDA-MB-231 breast", "result": "> 100", "unit": "µM"}, {"measurement": "TGI", "setting": "KM12 colon", "result": "> 100", "unit": "µM"}, {"measurement": "TGI", "setting": "786-0 renal", "result": "> 100", "unit": "µM"}, {"measurement": "TGI", "setting": "UO-31 renal", "result": "> 100", "unit": "µM"}, {"measurement": "TGI", "setting": "IGROV1 ovarian", "result": "> 100", "unit": "µM"}, {"measurement": "TGI", "setting": "HCT-15 colon", "result": "> 100", "unit": "µM"}, {"measurement": "TGI", "setting": "MOLT-4 leukemia", "result": "> 100", "unit": "µM"}, {"measurement": "TGI", "setting": "RXF 393 renal", "result": "> 100", "unit": "µM"}, {"measurement": "TGI", "setting": "TK-10 renal", "result": "> 100", "unit": "µM"}, {"measurement": "TGI", "setting": "T-47D breast", "result": "> 100", "unit": "µM"}, {"measurement": "TGI", "setting": "ACHN renal", "result": "> 100", "unit": "µM"}, {"measurement": "TGI", "setting": "HOP-62 NSCLC", "result": "> 100", "unit": "µM"}, {"measurement": "TGI", "setting": "SK-MEL-28 melanoma", "result": "> 100", "unit": "µM"}, {"measurement": "TGI", "setting": "HOP-92 NSCLC", "result": "> 100", "unit": "µM"}, {"measurement": "TGI", "setting": "SF-539 CNS", "result": "> 100", "unit": "µM"}, {"measurement": "TGI", "setting": "NCI-H460 lung", "result": "> 100", "unit": "µM"}, {"measurement": "TGI", "setting": "NCI-H226 lung", "result": "> 100", "unit": "µM"}, {"measurement": "TGI", "setting": "SW-620 colon", "result": "> 100", "unit": "µM"}, {"measurement": "TGI", "setting": "UACC-62 melanoma", "result": "> 100", "unit": "µM"}, {"measurement": "TGI", "setting": "DU-145 prostate", "result": "> 100", "unit": "µM"}, {"measurement": "TGI", "setting": "HT29 colon", "result": "> 100", "unit": "µM"}, {"measurement": "TGI", "setting": "BT-549 breast", "result": "> 100", "unit": "µM"}, {"measurement": "TGI", "setting": "SNB-19 CNS", "result": "> 100", "unit": "µM"}, {"measurement": "TGI", "setting": "COLO 205 colon", "result": "> 100", "unit": "µM"}, {"measurement": "TGI", "setting": "OVCAR-4 ovarian", "result": "> 100", "unit": "µM"}, {"measurement": "TGI", "setting": "A549 NSCLC", "result": "> 100", "unit": "µM"}, {"measurement": "TGI", "setting": "HS 578T breast", "result": "> 100", "unit": "µM"}, {"measurement": "TGI", "setting": "SK-MEL-2 melanoma", "result": "> 100", "unit": "µM"}, {"measurement": "TGI", "setting": "K-562 leukemia", "result": "> 100", "unit": "µM"}, {"measurement": "TGI", "setting": "SR leukemia", "result": "> 100", "unit": "µM"}, {"measurement": "TGI", "setting": "UACC-257 melanoma", "result": "> 100", "unit": "µM"}, {"measurement": "TGI", "setting": "RPMI-8226 leukemia", "result": "> 100", "unit": "µM"}, {"measurement": "TGI", "setting": "CAKI-1 renal", "result": "> 100", "unit": "µM"}, {"measurement": "TGI", "setting": "HCT-116 colon", "result": "> 100", "unit": "µM"}, {"measurement": "TGI", "setting": "SNB-75 CNS", "result": "> 100", "unit": "µM"}, {"measurement": "TGI", "setting": "OVCAR-8 ovarian", "result": "> 100", "unit": "µM"}, {"measurement": "TGI", "setting": "OVCAR-3 ovarian", "result": "> 100", "unit": "µM"}, {"measurement": "TGI", "setting": "SK-OV-3 ovarian", "result": "> 100", "unit": "µM"}, {"measurement": "TGI", "setting": "SF-295 CNS", "result": "> 100", "unit": "µM"}, {"measurement": "TGI", "setting": "NCI/ADR-RES ovarian", "result": "> 100", "unit": "µM"}, {"measurement": "TGI", "setting": "SK-MEL-5 melanoma", "result": "> 100", "unit": "µM"}, {"measurement": "TGI", "setting": "SF-268 CNS", "result": "> 100", "unit": "µM"}, {"measurement": "TGI", "setting": "HCC-2998 colon", "result": "> 100", "unit": "µM"}, {"measurement": "TGI", "setting": "NCI-H522 lung", "result": "> 100", "unit": "µM"}, {"measurement": "TGI", "setting": "MCF7 breast", "result": "> 100", "unit": "µM"}, {"measurement": "TGI", "setting": "M14 melanoma", "result": "> 100", "unit": "µM"}, {"measurement": "TGI", "setting": "MDA-MB-435", "result": "> 100", "unit": "µM"}, {"measurement": "TGI", "setting": "EKVX NSCLC", "result": "> 100", "unit": "µM"}, {"measurement": "TGI", "setting": "PC-3 prostate", "result": "> 100", "unit": "µM"}, {"measurement": "TGI", "setting": "HL-60(TB) leukemia", "result": "> 100", "unit": "µM"}, {"measurement": "TGI", "setting": "U251 CNS", "result": "> 100", "unit": "µM"}, {"measurement": "TGI", "setting": "OVCAR-5 ovarian", "result": "> 100", "unit": "µM"}, {"measurement": "TGI", "setting": "SN12C renal", "result": "> 100", "unit": "µM"}, {"measurement": "TGI", "setting": "CCRF-CEM leukemia", "result": "> 100", "unit": "µM"}, {"measurement": "TGI", "setting": "NCI-H23 lung", "result": "> 100", "unit": "µM"}]}
